Experiments:
[1] = biological target: T1, wild-type (WT) KRAS (aa1-185) (Homo sapiens, UniProt P01116); test: KRAS Surface Plasma Resonance (SPR) binding assay, WT KRAS; details: SPR at 10 °C, geometric mean when tested more than once
T1 construct: wild-type (WT) KRAS (aa1-185)
Source text: No additional regeneration was used.
Compound dissociation was monitored for at least 3600 seconds. […] No additional regeneration was used.

[2] = biological target: G12D KRAS (aa1-185) (Homo sapiens, UniProt P01116, G12D); test: biochemical;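 also: surface plasmon resonance at 10 °C, KRAS captured on a streptavidin chip in GDP-containing buffer, compound dilution series injected, blank streptavidin surface as reference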
Chain of G12D KRAS (aa1-185) (P01116 1-185 isoform P01116-2 G12D): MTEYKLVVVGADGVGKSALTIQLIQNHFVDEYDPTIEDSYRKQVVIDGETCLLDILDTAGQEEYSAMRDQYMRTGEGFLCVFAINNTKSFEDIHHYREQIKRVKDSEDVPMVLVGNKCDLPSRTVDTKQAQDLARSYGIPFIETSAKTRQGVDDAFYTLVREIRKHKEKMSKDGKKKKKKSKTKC
Protocol: (§1) SPR assay was used to measure the kinetic binding constant (KD) of Examples of the present invention.
(§2) The binding affinity and kinetics of Examples of the present invention were measured by Surface Plasmon Resonance (SPR) using Biacore 8K or 8K+ (Cytiva, Marlborough, MA) instruments. Recombinant, C-terminal site-specific biotinylated, wild-type (WT) KRAS (aa1-185), G12D KRAS (aa1-185), G12C KRAS (aa2-184), G12V KRAS (aa2-184), WT HRAS (aa2-184) and WT NRAS (aa2-185) proteins purified in presence of 1 μM GDP were used in these experiments. Binding measurements were performed parallelly in sets of either WT/G12D/G12C/G12V KRAS or WT K/H/N RAS proteins.
(§3) Biacore instrument was desorbed and docked with a Series S Sensor Chip SA. The proteins were diluted to 50 μg/mL with the assay buffer (50 mM HEPES, 150 mM NaCl, 10 μM GDP, 5 mM MgCl2, 0.5 mM TCEP, 5% glycerol, 0.02% Tween-20, 2% DMSO, pH 7.2) and immobilized at a flow rate of 3 μL/min at 10° C. with a contact time of 15 min. to capture ~3000-4000 RUs of proteins on the surface. The functionalized surface was then equilibrated with assay buffer for approximately 1 hour. Un-functionalized SA surfaces with no immobilized protein served as reference for binding kinetic analysis. Compound binding kinetics were measured in either multi-cycle or single-cycle kinetic format.
(§4) A 2-fold, 10-point serial dilution of test compounds was set-up in a 96-well microplate (Greiner; Cat #650101) with a top concentration of either 10 μM or 100 μM. Binding kinetics was measured at 10° C. by injecting serial dilution of compounds onto both reference and RAS immobilized channels at a flow rate of 100 μL/min and association time of 90 seconds. Compound dissociation was monitored for at least 400 seconds during each cycle. No additional regeneration was used. DMSO calibration curve was obtained before and after compound analysis by injecting 0-4% of DMSO in assay buffer. A suitable compound with known affinity and kinetics was tested once in every experiment as a positive control to assess activity of the captured protein on the surface.
(§5) A 3-fold, 6-point serial dilution of compounds was set-up in a deep 96-well microplate (Greiner Bio; Cat #780201) with the highest concentration of 1 μM (concentration range: 0.004-1 μM). Binding kinetics was measured at 10° C. by injecting serial dilutions of compounds in increasing order onto reference as well as RAS immobilized channels at a flow rate of 100 μL/min and association time of 120 seconds. Compound dissociation was monitored for at least 3600 seconds. Two buffer blanks were also run in a single-cycle kinetics format before the compound run for double referencing. No additional regeneration was used. DMSO calibration curve was obtained before and after compound analysis by injecting 0-4% of DMSO in the assay buffer. A suitable compound with known affinity and kinetics was tested once in every experiment as a positive control to assess activity of the captured protein on the surface.
(§6) Both MCK and SCK data were processed and analyzed using Biacore Insight evaluation software (Cytiva, Marlborough, MA)). […] The adequateness of the fit was judged by c^2 values and the randomness of residue distribution.
(§7) A geometric mean of binding constant KD was provided when an Example was tested more than once (n is testing replicate number).

[3] = biological target: G12V KRAS (aa2-184) (Homo sapiens, UniProt P01116, G12V); test: biochemical
Chain of G12V KRAS (aa2-184) (P01116 2-184 isoform P01116-2 G12V): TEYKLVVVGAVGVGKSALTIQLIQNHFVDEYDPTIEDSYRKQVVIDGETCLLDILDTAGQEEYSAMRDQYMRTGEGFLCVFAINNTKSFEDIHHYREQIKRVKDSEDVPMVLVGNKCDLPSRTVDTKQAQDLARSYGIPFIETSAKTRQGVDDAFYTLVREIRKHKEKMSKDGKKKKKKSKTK
Protocol: as §1, §2, §3, §4, §5, §6, §7

[4] = biological target: G12C KRAS (aa2-184) (Homo sapiens, UniProt P01116, G12C); test: biochemical
Chain of G12C KRAS (aa2-184) (P01116 2-184 isoform P01116-2 G12C): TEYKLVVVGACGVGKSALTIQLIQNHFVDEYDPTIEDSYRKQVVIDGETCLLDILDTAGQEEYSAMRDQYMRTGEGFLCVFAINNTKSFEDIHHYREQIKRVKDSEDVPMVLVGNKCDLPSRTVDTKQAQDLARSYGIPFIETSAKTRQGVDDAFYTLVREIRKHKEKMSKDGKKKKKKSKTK
Protocol: as §1, §2, §3, §4, §5, §6, §7

T1 sequence (P01116 1-185 isoform P01116-2): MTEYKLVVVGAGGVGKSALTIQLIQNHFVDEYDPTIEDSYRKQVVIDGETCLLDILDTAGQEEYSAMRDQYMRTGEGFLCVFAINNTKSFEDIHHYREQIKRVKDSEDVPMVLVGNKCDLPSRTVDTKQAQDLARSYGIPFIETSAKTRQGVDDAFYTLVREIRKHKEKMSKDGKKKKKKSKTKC

Row | Compound | Kd [1] [nM] | Kd [2] [nM] | Kd [3] [nM] | Kd [4] [nM]
1 | C#Cc1cccc2cc(O)cc(-c3ncc4c(N5C[C@H](CC#N)[C@@H](F)C5)nc(OC[C@@]56CCCN5C[C@H](F)C6)nc4c3F)c12 (mixture of isomers) [Example 7, {(3SR,4RS)-1-[7-(8-ethynyl-3-hydroxynaphthalen-1-yl)-8-fluoro-2-{[(2R,7aS)-2-fluorotetrahydro-1H-pyrrolizin-7a(5H)-yl]methoxy}pyrido[4,3-d]pyrimidin-4-yl]-4-fluoropyrrolidin-3-yl}acetonitrile] | 2.55 | 11.4 | 6.71 | 8.33
2 | C#Cc1cccc2cc(O)cc(-c3ncc4c(N5C[C@H]6C[C@@H](O)[C@@H](C5)O6)nc(OC[C@@]56CCCN5C[C@H](F)C6)nc4c3F)c12 (relative stereo) [Example 18, (1R*,5R*,6R*)-3-[7-(8-ethynyl-3-hydroxynaphthalen-1-yl)-8-fluoro-2-{[(2R,7aS)-2-fluorotetrahydro-1H-pyrrolizin-7a(5H)-yl]methoxy}pyrido[4,3-d]pyrimidin-4-yl]-8-oxa-3-azabicyclo[3.2.1]octan-6-ol] | 0.092 | 0.214 | 0.13 | 0.759
3 | Oc1cc(-c2ncc3c(N4C[C@H]5C[C@@H](O)[C@H]5C4)nc(OC[C@@]45CCCN4C[C@H](F)C5)nc3c2F)c2c(Cl)cccc2c1 (relative stereo) [Example 21, (1S*,5R*,6R*)-3-[7-(8-chloro-3-hydroxynaphthalen-1-yl)-8-fluoro-2-{[(2R,7aS)-2-fluorotetrahydro-1H-pyrrolizin-7a(5H)-yl]methoxy}pyrido[4,3-d]pyrimidin-4-yl]-3-azabicyclo[3.2.0]heptan-6-ol] | 1.76 | 1.01 | 1.46 | 1.9
4 | Oc1cc(-c2ncc3c(N4C[C@@H]5C[C@H](O)[C@@H]5C4)nc(OC[C@@]45CCCN4C[C@H](F)C5)nc3c2F)c2c(Cl)cccc2c1 (relative stereo) [Example 22, (1R*,5S*,6S*)-3-[7-(8-chloro-3-hydroxynaphthalen-1-yl)-8-fluoro-2-{[(2R,7aS)-2-fluorotetrahydro-1H-pyrrolizin-7a(5H)-yl]methoxy}pyrido[4,3-d]pyrimidin-4-yl]-3-azabicyclo[3.2.0]heptan-6-ol] | 11.9 | 36.9 | 46.7 | 42.4
5 | C#Cc1cccc2cc(O)cc(-c3ncc4c(N5C[C@@H]6C[C@H](O)[C@H](C5)O6)nc(OC[C@@]56CCCN5C[C@H](F)C6)nc4c3F)c12 (single isomer, unassigned) [Example 19, (1S*,5S*,6S*)-3-[7-(8-ethynyl-3-hydroxynaphthalen-1-yl)-8-fluoro-2-{[(2R,7aS)-2-fluorotetrahydro-1H-pyrrolizin-7a(5H)-yl]methoxy}pyrido[4,3-d]pyrimidin-4-yl]-8-oxa-3-azabicyclo[3.2.1]octan-6-ol] | 27.9 | 78.3 | 91.7 | 84.7
6 | C#Cc1cccc2cc(O)cc(-c3ncc4c(N5CCC[C@@H](CC#N)C5)nc(OC[C@@]56CCCN5C[C@H](F)C6)nc4c3F)c12 [Example 1, {(3S)-1-[7-(8-ethynyl-3-hydroxynaphthalen-1-yl)-8-fluoro-2-{[(2R,7aS)-2-fluorotetrahydro-1H-pyrrolizin-7a(5H)-yl]methoxy}pyrido[4,3-d]pyrimidin-4-yl]piperidin-3-yl}acetonitrile] | 0.273 | 0.268 | 0.454 | 1.23
7 | C#Cc1cccc2cc(O)cc(-c3ncc4c(N5C[C@H]6CC[C@@H](C5)O6)nc(OC[C@@]56CCCN5C[C@H](F)C6)nc4c3F)c12 [Example 2, 5-ethynyl-4-(8-fluoro-2-{[(2R,7aS)-2-fluorotetrahydro-1H-pyrrolizin-7a(5H)-yl]methoxy}-4-[(1R,5S)-8-oxa-3-azabicyclo[3.2.1]octan-3-yl]pyrido[4,3-d]pyrimidin-7-yl)naphthalen-2-ol] | 0.422 | 1.89 | 0.515 | 1.64
